Measurements taken from US20240301319A1, “PERFUMING COMPOSITIONS” (FIRMNICH SA, priority 2017, published 2024).
Values joined by “and” are separate entries in the source; they are usually repeats but may differ in a detail not shown here. Equal values may be shown once.

Assays:
[1] = Odor threshold and odor value of perfuming compounds (Tables 4 to 10)
[2] = Log P (n-octanol/water) of perfuming compounds (Tables 4 to 10)
[3] = Volatility of perfuming compounds (Tables 4 to 10), with top/middle/bottom note type; type: physicochemical
In short: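 Volatility is expressed in μg/l in air. Top notes are 70,000 to 100 μg/l, middle notes 99 to 50 μg/l, and bottom notes 49 to 0.1 μg/l. Compounds are grouped by olfactive family: watery, green, fruity, citrus, sweet, gourmand and woody.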

[4] = Table 6, perfuming compounds having a fruity note
[5] = Table 6, perfuming compounds having a fruity note, note type by volatility
[6] = perfuming compounds having a green note
[7] = n-octanol/water, perfuming compounds having a green note
[8] = note type (Top/Middle/Bottom) by volatility, perfuming compounds having a green note
[9] = Table 8, perfuming compounds having a sweet note

Row | Molecule | Log P (n-octanol/water) [2, 4] | Volatility [3, 4] | Type [3, 5] | Odor Threshold (μg/l air) [1, 6] | Log P (n-octanol/water) [2, 7] | Type [3, 8] | Volatility (μg/l air) [3, 6] | further results
1 | C=C(C)C1CC=C(C)CC1 (single isomer, unassigned; (+)) [(+)-LIMONENE] | 5.40 | 10216.93 μg/l air | TOP (perfuming compounds having a volatility ranging from 70,000 to 100 μg/l in air are referred to as “top notes”) | – | – | – | – | Odor Threshold (μg/l air) ([1]; Table 7, citrus note): 1.29E−01 μg/l air; Odor Value ([1]; Table 7, citrus note, equals volatility divided by odor threshold): 7.92E+04; Log P (n-octanol/water) ([2]; Table 7, citrus note): 5.40; Volatility (μg/l air) ([3]; Table 7, citrus note): 10216.93 μg/l air; Type ([3]; Table 7, citrus note, top, middle or bottom note): Top
2 | COC(OC)C(C)c1ccccc1 (stereo not shown) [1,1-DIMETHOXY-2-PHENYLPROPANE] | – | – | – | 1.42E−02 μg/l air | 2.50 | Top | 376.94 μg/l air | –
3 | CC(C)CC(=O)OCc1ccccc1 [BENZYL 3-METHYLBUTANOATE] | 3.45 | 63.56 μg/l air | Middle | – | – | – | – | Odor Threshold [1, 4]: 7.31E−03 μg/l air; Odor Value [1, 4]: 8.70E+03; Odor Threshold [1, 9]: 7.31E−03 μg/l air; Odor Value [1, 9]: 8.70E+03; Log P (n-octanol/water) [2, 9]: 3.45; Volatility [3, 9]: 63.56 μg/l air; Type ([3]; Table 8, perfuming compounds having a sweet note, note type by volatility): Middle
4 | CC(=O)CCc1ccc(O)cc1 [4-(4-HYDROXY-1-PHENYL)-2-BUTANONE] | 0.93 | 0.36 μg/l air | Bottom | – | – | – | – | Odor Threshold [1, 4]: 2.05E−07 μg/l air; Odor Value [1, 4]: 1.75E+06
5 | CCCC(C)C(=O)OCC (racemic) [(+−)-ETHYL 2-METHYLPENTANOATE] | 3.05 | 35090.18 μg/l air | TOP (perfuming compounds having a volatility ranging from 70,000 to 100 μg/l in air are referred to as “top notes”) | 3.84E−05 μg/l air | 3.05 | Top | 35090.18 μg/l air | –
6 | CCC(C)C1(C)COC(C2CCC(C)=CC2C)OC1 (stereo not shown) | – | – | – | – | – | – | – | Odor Threshold ([1]; Table 10, woody note): 1.67E−03 μg/l air; Log P (n-octanol/water) ([2]; Table 10, woody note): 6.50; Type ([3]; Table 10, perfuming compounds having a woody note, note type by volatility): Bottom; Volatility ([3]; Table 10, woody note): 3.82 μg/l air
7 | Cc1ccc(OCC=O)cc1 | – | – | – | 6.46E−05 μg/l air | 1.99 | Middle | 89.41 μg/l air | –
8 | c1ccc(CCCc2ccccn2)cc1 [2-(3-PHENYLPROPYL)PYRIDINE] | – | – | – | 1.29E−06 μg/l air | 2.87 | Bottom | 3.83 μg/l air | –
9 | COC(Cc1ccccc1)OC [(2,2-DIMETHOXYETHYL)BENZENE] | – | – | – | 4.55E−02 μg/l air | 2.10 | Top | 456.97 μg/l air | –
10 | Cc1ccc2c(c1)OCC(=O)CO2 [7-methyl-2H-1,5-benzodioxepin-3(4H)-one] | – | – | – | – | 3.40 and 3.53 | – | – | –
11 | C=CC(CCCCC)OC(C)=O (racemic) [(+−)-1-PENTYL-2-PROPENYL ACETATE] | 3.79 | 1506.95 μg/l air | TOP (perfuming compounds having a volatility ranging from 70,000 to 100 μg/l in air are referred to as “top notes”) | – | – | – | – | –
12 | CC(OC=O)C1CCCC(C)(C)C1 (stereo not shown) | 4.01 | 1129.46 μg/l air | TOP (perfuming compounds having a volatility ranging from 70,000 to 100 μg/l in air are referred to as “top notes”) | – | – | – | – | –
13 | CC(O)c1ccccc1 (stereo not shown) [1-PHENYL-1-ETHANOL] | 1.42 | 470.00 μg/l air | TOP (perfuming compounds having a volatility ranging from 70,000 to 100 μg/l in air are referred to as “top notes”) | – | – | – | – | –
14 | 10-undecenal (A) + (9E)-9-undecenal (B) + (9Z)-9-undecenal (C) | – | – | – | – | – | – | – | Odor Threshold (μg/l air) ([1]; Table 4, watery note): 3.77E−05 μg/l air; Odor Value ([1]; Table 4, watery note, equals volatility divided by odor threshold): 3.50E+06; Volatility (μg/l air) ([3]; Table 4, watery note): 131.95 μg/l air; Type ([3]; Table 4, watery note, top, middle or bottom note): TOP (perfuming compounds having a volatility ranging from 70,000 to 100 μg/l in air are referred to as “top notes”)
